Test results: US12607637B2, “Super-resolution morphology-correlated detection of labile zinc” (University of Cincinnati, priority 2020, dated 2026)
“And” between values parts separate entries of the source, which are not always exact repeats. Equal values may be shown once.

Key:
HeLa cells [1] = assay: Photostability in cells under continuous laser stimulation; type: cell-based
Experimental: At the same time, because NapBu-BPEA's optical stability is an important factor in super-resolution imaging, a long-term continuous laser (300 s) stimulation of cells was carried out, capturing images every 20 s in order to monitor the photostability of NapBu-BPEA and MTDR in cells (FIG. 4(f), (g)). […] These characteristics enabled NapBu-BPEA to dynamically monitor cellular ultrastructures with long-term super-resolution imaging.

HeLa cells [2] = assay: SIM imaging of intracellular labile Zn^2+ on ZnPT loading and TPEN scavenging; type: cell-based
Experimental: In view of these promising results, a 1:2 mixture of ZnCl2 and pyrithione sodium salt, a cell-permeable Zn^2+ carrier (ZnPT) to transport exogenous Zn^2+ to cells, and a cell-permeable Zn^2+-chelating agent, TPEN, were used to evaluate the reversibility of fluorescence response to Zn^2+ in living cells according to methods described elsewhere. To determine the entry time of exogenous Zn^2+ into cells, NapBu-BPEA was incubated and an initial image was captured, after which 50 μM ZnPT (50 μM ZnCl2/100 μM pyrithione sodium salt) was used to replace the culture medium in dye-free and serum-free DMEM. […] The variance may be attributed to the difference in lipophilicity.
Next, NapBu-BPEA was investigated for its intracellular labile Zn^2+ imaging ability. Imaging experiments were performed in HeLa cells upon exogenous Zn^2+ loading via incubation with zinc pyrithione cmplex (ZnPT), a cell-permeable Zn^2+ carrier.
Intracellular labile Zn^2+ enhancement processes were tracked by recording SIM images every 2 min. […] While not desiring to be bound by theory, it is proposed that the butyl tail of NapBu-BPEA is responsible for the retained multiple organelle accumulation behavior of NapBu-BPEA upon Zn^2+ binding.

[3] = Zn^2+ fluorescence titration, Job's plot, detection limit, binding constant, metal ion selectivity and TPEN reversibility in HEPES/DMSO
Experimental: (§1) The stock solution of NapBu-BPEA was prepared with DMSO of HPLC pure grade to make the concentration as 10 mM, and frozen after packing at −20° C. The sample solutions were diluted to the final concentration as 10 μM with 3 mL HEPES buffer (50 mM, 100 mM KNO3, 10% DMSO, pH 7.2) in quartz cuvettes with 1 cm path lengths. The fluorescent spectra were recorded upon the excitation of 450 nm.
(§2) The Zn^2+ titration spectra were recorded by adding in aliquots Zn^2+ solution from 0 to 15 μM into the NapBu-BPEA solution (10 μM). The detection limit of NapBu-BPEA was determined by collecting the fluorescence spectra of NapBu-BPEA for 6 times to obtain the background noise (a). The probe's fluorescent sensing selectivity of NapBu-BPEA was recorded after adding metal cation (1000 eq K^+, Na^+, Ca^2+, Mg^2+; 1 eq Cd^2+, Ni^2+, Cr^3+, Pb^2+, Al^3+, Co^2+, Fe^2+, Fe^3+, Ba^2+, Mn^2+) to the NapBu-BPEA solution. The fluorescence quantum yields were determined by using Ru(bpy)3^2+ (Φ=0.04) in DMSO/HEPES (v:v, 1:9)(λex=450 nm) as the reference. To determine binding constant, various amounts of Zn(NO3)2 (0˜9 mM) were added to NapBu-BPEA solution buffered with DMSO/HEPES (50 mM, pH 7.21, 100 mM KNO3) containing 10 mM EGTA. The pH stability was measured by recording the fluorescence spectra of NapBu-BPEA solution in the presence of Zn^2+ at different pH adjusted with KOH and HCl.

HeLa cells [4] = assay: SIM imaging of labile Zn^2+ during CCCP- or EBSS-induced autophagy; type: cell-based
Source text: The SIM images were acquired using a Nikon N-SIM system. The blue imaging channel for Hoechst 33258 with emission bandwidth at 420-495 nm upon excitation at 405 nm, the green imaging channel for NapBu-BPEA with emission bandwidth at 500-550 nm upon excitation at 488 nm, the red imaging channel for ER-Tracker Red, LysoTracker Red and DAPRed with emission bandwidth at 570-640 nm upon excitation at 561 nm, the magenta imaging channel for MitoTracker Deep Red with emission bandwidth at 660-735 nm upon excitation at 640 nm were utilized. The imaging data analysis and thermal map construction were performed via analysis with ImageJ.
The intracellular Zn^2+ level in autophagy was imaged in HeLa cells. Prior to CCCP (10 μM, 24 h) or EBSS treatment ([…]), the cells were stained with DAPRed (1 μM, 30 min). The cells were finally stained by NapBu-BPEA (10 μM, 1 h) before SIM imaging.

FIP200 KO HeLa cells = assay: SIM imaging of labile Zn^2+ after CCCP in autophagy-deficient cells; type: cell-based
Experimental: (§3) Wild-type, FIP200 and ATG13 KO HeLa cell lines were gifted from Dr. Jun-Lin Guan's lab (University of Cincinnati). Cells were cultured in DMEM supplemented 10% FBS and 100 U/mL penicillin-streptomycin (Gibco) in 5% CO2 incubator at 37° C.
(§4) Considering that ATG13 and FIP200 are essential proteins for autophagy, to further elucidate the relationship between autophagy and changes in level of Zn^2+ two stable knockout (KO) cell lines were obtained (ATG13 KO HeLa cells and FIP200 KO HeLa cells) via CRISPR/Cas9 gene editing technology.

ATG13 KO HeLa cells = assay: as above; type: cell-based
Experimental: as §3, §4

[5] = Spectroscopic study: fluorescence quantum yield and pH stability in DMSO/HEPES; type: physicochemical; details: probe bound to Zn^2+, pH titration
Experimental: as §1, §2

HeLa cells [6] = assay: Cell viability determination via WST (LDH release) assay; type: cell-based; details: 20 μM, 24 h
Experimental: The suspension of HeLa cells diluted with 50 μL DMEM was plated into 96-well plate. The inoculated cells were pre-cultured overnight in 96-well plate and replaced with a new 50 μL DMEM. 50 μL DMEM containing different concentrations of NapBu-BPEA was added and cultured in CO2 incubator at 37° C. for 24 h. After 10 μL lysis buffer was added to the high contrast wells, 30 min was cultured in the CO2 incubator at 37° C. After 100 μL working solution was added to each well, it was cultured for 0.5 h under dark and room temperature. After 50 μL stop solution was added to each well, the absorbance of 490 nm was determined immediately by a microplate reader (Thermomax, Molecular Devices).

[7] = CCCP treatment, regions selected by morphology

C[N+]1=C(/C=C/C=C/C=C2\N(Cc3ccc(CCl)cc3)c3ccccc3C2(C)C)C(C)(C)c2ccccc21.[Cl-] [MTDR, reference compound]
fluorescence intensity remaining (HeLa cells [1]; after 120 s of laser stimulation): less than 30%

CCCCN1C(=O)c2cccc3c(NCCN(Cc4ccccn4)Cc4ccccn4)ccc(c23)C1=O [NapBu-BPEA, 2,4-(bis(pyridin-2-ylmethyl)aminoethyl)amino-N-n-butyl-1,8-naphthalimide]
time until fluorescence intensity is balanced/stable after exogenous Zn^2+ (HeLa cells [2]; 50 μM ZnPT, images every 2 min): 6 min and 4 min | reversibility of intracellular response (HeLa cells [2]; 100 μM TPEN added to cells): respond reversibly to intracellular Zn^2+ | limit of detection for Zn^2+ ([3]; 3 σ/slope method): 54.5 nM | fluorescence selectivity against other metal ions ([3]; 1000 eq K+, Na+, Ca2+, Mg2+, 1 eq other cations, response only to Cd^2+): specific fluorescence selectivity for Zn^2+ | Kd ([3]; HEPES 50 mM, 100 mM KNO3, 10% DMSO, 10 mM EGTA, pH 7.21, read-out: dissociation constant (Kd) of the complex between Zn^2+ and NapBu-BPEA): 4.98 nM | reversibility of fluorescence response on TPEN addition ([3]; Zn^2+ 10 μM then TPEN 10 μM, five on-off cycles): favorable reversible response to Zn^2+ | emission enhancement on Zn^2+ titration ([3]; at 540 nm, 10 μM probe): 3.6 fold | green fluorescence intensity in mitophagic versus non-autophagic cells (HeLa cells [4]; CCCP 10 μM, 24 h, probe 10 μM, 1 h): ~2.0 fold | increase of Zn^2+ level (fluorescence intensity) in endoplasmic reticulum during autophagy (HeLa cells [4]; [7]): 1.55 fold | increase of Zn^2+ level (fluorescence intensity) in mitochondria during autophagy (HeLa cells [4]; [7]): 1.89 fold | fluorescence signal of CCCP-treated versus untreated cells (HeLa cells [4]; CCCP-induced mitophagy): improved significantly | fluorescence intensity of EBSS-treated cells (HeLa cells [4]; EBSS starvation 24 h): decreased | fluorescence intensity, CCCP-treated versus untreated (FIP200 KO HeLa cells): no significant change in fluorescence intensity | fluorescence intensity, CCCP-treated versus untreated (ATG13 KO HeLa cells): no significant change in fluorescence intensity | pH range of stable fluorescence response [5]: 4-8 pH | activity of lactate dehydrogenase released into the medium (HeLa cells [6]): less than 20% | cell viability (HeLa cells [6]): exceeded 80% | photobleaching (HeLa cells [1]; within 300 s of laser stimulation): negligible photobleaching
